BindingDB's records for doi:10.1021/jm00008a010 (1995)

Test: In vitro binding affinity towards 5-hydroxytryptamine 1D receptor beta by using [3H]5-HT as radioligand

## CCCNC1CCc2cccc(OS(=O)(=O)C(F)(F)F)c2C1 (stereo unspecified) [Trifluoro-methanesulfonic acid 7-propylamino-5,6,7,8-tetrahydro-naphthalen-1-yl ester]
  Ki: 169 nM
